Test results as given in ChEMBL document CHEMBL1201862, “PubChem BioAssay data set” (2004).
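Cultured in 96-well plates, cells were exposed to test compound for 48 hours across five concentrations. Here, GI50 denotes the concentration required for 50% inhibition of growth.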 The source made the active and inactive calls. No stated cut-off is given here; in the data, active = GI50 up to about 1.1 µM and inactive = higher.

Columns and labels:
Test in all cases: NCI tumour cell line growth inhibition, 48 h
MDA-N = tested on: MDA-N
UACC-257 = tested on: UACC-257
UACC-62 = tested on: UACC-62
A498 = tested on: A498
T47D = tested on: T47D
BT-549 = tested on: BT-549
SK-MEL-5 = tested on: SK-MEL-5
MCF7 = tested on: MCF7
SN12C = tested on: SN12C
MDA-MB-231 = tested on: MDA-MB-231
A549 = tested on: A549
SK-MEL-28 = tested on: SK-MEL-28
IGROV-1 = tested on: IGROV-1
DU-145 = tested on: DU-145
OVCAR-3 = tested on: OVCAR-3
SK-MEL-2 = tested on: SK-MEL-2
NCI-H522 = tested on: NCI-H522
SF-295 = tested on: SF-295
HOP-62 = tested on: HOP-62
NCI-H23 = tested on: NCI-H23
Malme-3M = tested on: Malme-3M
M14 = tested on: M14
SW-620 = tested on: SW-620
ACHN = tested on: ACHN
UO-31 = tested on: UO-31
MDA-MB-435 = tested on: MDA-MB-435
OVCAR-4 = tested on: OVCAR-4
SF-539 = tested on: SF-539
SR = tested on: SR
COLO 205 = tested on: COLO 205
CCRF-CEM = tested on: CCRF-CEM
SF-268 = tested on: SF-268
HOP-92 = tested on: HOP-92
KM12 = tested on: KM12
PC-3 = tested on: PC-3
U-251 = tested on: U-251
NCI-H226 = tested on: NCI-H226
OVCAR-5 = tested on: OVCAR-5
HCC 2998 = tested on: HCC 2998
TK-10 = tested on: TK-10
HL-60 = tested on: HL-60
Hs-578T = tested on: Hs-578T
NCI/ADR-RES = tested on: NCI/ADR-RES
RXF 393 = tested on: RXF 393
SNB-19 = tested on: SNB-19
HCT-15 = tested on: HCT-15
SK-OV-3 = tested on: SK-OV-3
OVCAR-8 = tested on: OVCAR-8
EKVX = tested on: EKVX
CAKI-1 = tested on: CAKI-1
NCI-H460 = tested on: NCI-H460
MOLT-4 = tested on: MOLT-4
HT-29 = tested on: HT-29
K562 = tested on: K562
SNB-75 = tested on: SNB-75
HCT-116 = tested on: HCT-116
LOX IMVI = tested on: LOX IMVI
786-0 = tested on: 786-0
RPMI-8226 = tested on: RPMI-8226

NNC(N)Nc1ccccc1 (configuration not stated)
GI50 (MDA-N): > 100 µM (inactive)
GI50 (UACC-257): > 100 µM (inactive)
GI50 (UACC-62): > 100 µM (inactive)
GI50 (A498): > 100 µM (inactive)
GI50 (T47D): > 100 µM (inactive)
GI50 (BT-549): > 100 µM (inactive)
GI50 (SK-MEL-5): > 100 µM (inactive)
GI50 (MCF7): > 100 µM (inactive)
GI50 (SN12C): > 100 µM (inactive)
GI50 (MDA-MB-231): > 100 µM (inactive)
GI50 (A549): > 100 µM (inactive)
GI50 (SK-MEL-28): > 100 µM (inactive)
GI50 (IGROV-1): > 100 µM (inactive)
GI50 (DU-145): > 100 µM (inactive)
GI50 (OVCAR-3): > 100 µM (inactive)
GI50 (SK-MEL-2): > 100 µM (inactive)
GI50 (NCI-H522): > 100 µM (inactive)
GI50 (SF-295): > 100 µM (inactive)
GI50 (HOP-62): > 100 µM (inactive)
GI50 (NCI-H23): > 100 µM (inactive)
GI50 (Malme-3M): > 100 µM (inactive)
GI50 (M14): > 100 µM (inactive)
GI50 (SW-620): > 100 µM (inactive)
GI50 (ACHN): > 100 µM (inactive)
GI50 (UO-31): > 100 µM (inactive)
GI50 (MDA-MB-435): > 100 µM (inactive)
GI50 (OVCAR-4): > 100 µM (inactive)
GI50 (SF-539): > 100 µM (inactive)
GI50 (SR): > 100 µM (inactive)
GI50 (COLO 205): > 100 µM (inactive)
GI50 (CCRF-CEM): > 100 µM (inactive)
GI50 (SF-268): > 100 µM (inactive)
GI50 (HOP-92): > 100 µM (inactive)
GI50 (KM12): > 100 µM (inactive)
GI50 (PC-3): > 100 µM (inactive)
GI50 (U-251): > 100 µM (inactive)
GI50 (NCI-H226): > 100 µM (inactive)
GI50 (OVCAR-5): > 100 µM (inactive)
GI50 (HCC 2998): > 100 µM (inactive)
GI50 (TK-10): > 100 µM (inactive)
GI50 (HL-60): > 100 µM (inactive)
GI50 (Hs-578T): > 100 µM (inactive)
GI50 (NCI/ADR-RES): > 100 µM (inactive)
GI50 (RXF 393): > 100 µM (inactive)
GI50 (SNB-19): > 100 µM (inactive)
GI50 (HCT-15): > 100 µM
GI50 (SK-OV-3): > 100 µM (inactive)
GI50 (OVCAR-8): > 100 µM (inactive)
GI50 (EKVX): > 100 µM (inactive)
GI50 (CAKI-1): > 100 µM (inactive)
GI50 (NCI-H460): > 100 µM (inactive)
GI50 (MOLT-4): > 100 µM (inactive)
GI50 (HT-29): > 100 µM (inactive)
GI50 (K562): > 100 µM (inactive)

COC(=O)c1cc2c3c(cc(NCCN)c2[nH]1)N(C(=O)c1cc2cc(OC)c(OC)c(OC)c2[nH]1)CC3CCl (configuration not stated)
GI50 (MDA-N): 0.0811 µM (active)
GI50 (SNB-75): 0.0382 µM (active)
GI50 (UACC-257): 0.214 µM (active)
GI50 (UACC-62): 0.0594 µM (active)
GI50 (A498): 0.131 µM (active)
GI50 (T47D): 0.031 µM (active)
GI50 (BT-549): 0.229 µM (active)
GI50 (SK-MEL-5): 0.0313 µM (active)
GI50 (HCT-116): 0.0198 µM (active)
GI50 (MCF7): 0.014 µM (active)
GI50 (LOX IMVI): 0.0186 µM (active)
GI50 (SN12C): 0.0982 µM (active)
GI50 (MDA-MB-231): 0.0638 µM (active)
GI50 (A549): 0.145 µM (active)
GI50 (SK-MEL-28): 0.109 µM (active)
GI50 (IGROV-1): 0.012 µM (active)
GI50 (DU-145): 0.0221 µM (active)
GI50 (OVCAR-3): 0.0728 µM (active)
GI50 (SK-MEL-2): 0.0628 µM (active)
GI50 (NCI-H522): < 0.01 µM (active)
GI50 (SF-295): 0.228 µM (active)
GI50 (HOP-62): 0.17 µM (active)
GI50 (NCI-H23): 0.0659 µM (active)
GI50 (Malme-3M): 0.0377 µM (active)
GI50 (M14): 0.118 µM (active)
GI50 (SW-620): 0.0369 µM (active)
GI50 (ACHN): 0.0889 µM (active)
GI50 (UO-31): 0.192 µM (active)
GI50 (MDA-MB-435): 0.152 µM (active)
GI50 (OVCAR-4): 0.0925 µM (active)
GI50 (SF-539): 0.0392 µM (active)
GI50 (SR): 0.0153 µM (active)
GI50 (COLO 205): 0.0559 µM (active)
GI50 (CCRF-CEM): 0.0174 µM (active)
GI50 (SF-268): 0.0213 µM (active)
GI50 (HOP-92): 0.0703 µM (active)
GI50 (KM12): 0.205 µM (active)
GI50 (PC-3): 0.0269 µM (active)
GI50 (U-251): 0.0144 µM (active)
GI50 (NCI-H226): 0.0177 µM (active)
GI50 (OVCAR-5): 0.0393 µM (active)
GI50 (HCC 2998): 0.0982 µM (active)
GI50 (TK-10): 0.366 µM (active)
GI50 (Hs-578T): 0.049 µM (active)
GI50 (NCI/ADR-RES): 0.358 µM (active)
GI50 (RXF 393): 0.0301 µM (active)
GI50 (SNB-19): 0.0183 µM (active)
GI50 (786-0): 0.0423 µM (active)
GI50 (HCT-15): 0.573 µM
GI50 (SK-OV-3): 0.273 µM (active)
GI50 (OVCAR-8): 0.109 µM (active)
GI50 (EKVX): 0.158 µM (active)
GI50 (RPMI-8226): 0.25 µM (active)
GI50 (CAKI-1): 0.144 µM (active)
GI50 (NCI-H460): 0.0502 µM (active)
GI50 (MOLT-4): 0.0251 µM (active)
GI50 (HT-29): 0.0277 µM (active)
GI50 (K562): 0.0247 µM (active)
